Test results published in PMC7106896, “Synthesis and biological evaluation of 2-(4-methylsulfonyl phenyl) indole derivatives: multi-target compounds with dual antimicrobial and anti-inflammatory activities” (BMC Chemistry, 2020).
Values after ≈ are worked out from the molar mass of the structure shown. Values joined by “and” are separate entries in the source; they are usually repeats but may differ in a detail not shown here. Equal entries are not always repeated.

Legend:
C. albicans = assay: Minimal inhibitory concentration measurement; assay type: cell-based; conditions: Candida albicans; read-out: MIC Ca (C. albicans)
Method: (§2) The antimicrobial and antifungal screening was performed according to CO-ADD (The Community for Antimicrobial Drug Discovery) procedures [27].

[1] = tested on: C. neoformans var. grubii; assay: Minimal inhibitory concentration measurement; assay type: cell-based; conditions: Cryptococcus neoformans; read-out: MIC Cn (C. neoformans var. grubii)
Method: as §2

MRSA = assay: Minimal inhibitory concentration measurement; assay type: cell-based; conditions: Staphylococcus aureus, read-out: MIC Sa (MRSA)
Method: as §2

E. coli = assay: Minimal inhibitory concentration measurement; assay type: cell-based; conditions: Escherichia coli; read-out: MIC Ec (E. coli)
Method: as §2

P. aeruginosa = assay: Minimal inhibitory concentration measurement; assay type: cell-based; conditions: Pseudomonas aeruginosa; read-out: MIC Pa (P. aeruginosa)
Method: as §2

A. baumannii = assay: Minimal inhibitory concentration measurement; assay type: cell-based; conditions: Acinetobacter baumannii; read-out: MIC Ab (A. baumannii)
Method: as §2

[2] = tested on: Acinetobacter baumannii (ATCC 19606); assay: Antimicrobial screening (CO-ADD), growth inhibition at single concentration; assay type: cell-based; conditions: ATCC19606, at 32 µg/mL concentration, read-out: growth inhibition % Ab (A. baumannii)
Method: (§1) The antimicrobial study was performed by CO-ADD (The Community for Antimicrobial Drug Discovery), funded by the Wellcome Trust (UK) and The University of Queensland (Australia). Evaluation of all synthesized compounds for their antimicrobial activities was done against five pathogenic bacteria, methicillin-resistant Staphylococcus aureus (ATCC 43300) as Gram-positive bacteria, Escherichia coli (ATCC 25922), Klebsiella pneumonia (ATCC 700603), Acinetobacter baumannii (ATCC 19606) and Pseudomonas aeruginosa (ATCC 27853) as Gram-negative bacteria and antifungal activity against two pathogenic fungal strains Candida albicans (ATCC 90028) and Cryptococcus neoformans var. grubii (H99; ATCC 208821) (Table 1).

[3] = tested on: Escherichia coli (ATCC 25922); assay: as above; assay type: cell-based; conditions: ATCC25922, at 32 µg/mL concentration, read-out: growth inhibition % Ec (E. coli)
Method: as §1

[4] = tested on: Klebsiella pneumonia (ATCC 700603); assay: as above; assay type: cell-based; conditions: Klebsiella pneumoniae, ATCC700603; at 32 µg/mL concentration; read-out: growth inhibition % Kp (K. pneumoniae)
Method: as §1

[5] = tested on: Pseudomonas aeruginosa (ATCC 27853); assay: as above; assay type: cell-based; conditions: ATCC27853, at 32 µg/mL concentration, read-out: growth inhibition % Pa (P. aeruginosa)
Method: as §1

[6] = tested on: methicillin-resistant Staphylococcus aureus (ATCC 43300); assay: as above; assay type: cell-based; conditions: ATCC 43300 / MRSA, at 32 µg/mL concentration, read-out: growth inhibition % Sa (MRSA)
Method: as §1

[7] = tested on: Candida albicans (ATCC 90028); assay: Antifungal screening (CO-ADD), growth inhibition at single concentration; assay type: cell-based; conditions: ATCC90028, at 32 µg/mL concentration, read-out: growth inhibition % Ca (C. albicans)
Method: as §1

Ovine COX-1 = biological target: T1, Ovine COX-1 (Ovis aries, UniProt P05979); assay: In vitro COX inhibition colorimetric assay; assay type: biochemical
T1 construct: purchased Cayman Chemical, Ann Arbor, MI, USA 760111
T1 sequence (P05979 25-600): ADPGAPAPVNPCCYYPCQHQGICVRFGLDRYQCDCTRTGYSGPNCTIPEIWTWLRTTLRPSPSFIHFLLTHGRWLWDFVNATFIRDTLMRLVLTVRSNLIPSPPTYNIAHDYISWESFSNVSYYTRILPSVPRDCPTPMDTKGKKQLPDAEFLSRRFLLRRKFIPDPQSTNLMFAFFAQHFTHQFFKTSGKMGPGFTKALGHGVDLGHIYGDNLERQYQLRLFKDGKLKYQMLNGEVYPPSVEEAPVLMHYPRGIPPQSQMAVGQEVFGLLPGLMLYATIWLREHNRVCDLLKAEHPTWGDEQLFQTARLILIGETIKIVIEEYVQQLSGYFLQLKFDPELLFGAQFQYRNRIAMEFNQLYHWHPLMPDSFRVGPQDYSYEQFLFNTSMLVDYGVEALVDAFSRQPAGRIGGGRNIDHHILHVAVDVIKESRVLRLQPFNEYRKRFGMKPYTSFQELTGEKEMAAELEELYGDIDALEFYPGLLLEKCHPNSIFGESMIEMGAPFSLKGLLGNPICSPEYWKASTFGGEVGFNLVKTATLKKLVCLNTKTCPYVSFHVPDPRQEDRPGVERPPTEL

human recombinant COX-2 = assay: In vitro COX inhibition colorimetric assay; assay type: biochemical; conditions: COX-1 IC50/COX-2 IC50
[8] = tested on: carrageenan-induced rat paw edema; assay: Carrageenan-induced rat paw edema assay; assay type: in vivo; conditions: for Edema thickness (mm) ± SEM: n = 4
Method: Pretreatment of rats with compounds 7a–k, 8a–c, and 9a–c before injection with carrageenan in rat paw which induces inflammation and then the percentage of paw edema reduction was measured after certain hours according to previously reported procedures.

SMILES | inhibition at 32 µg/mL [2] [%] | inhibition at 32 µg/mL [4] [%] | inhibition at 32 µg/mL [5] [%] | inhibition at 32 µg/mL [6] [%] | inhibition at 32 µg/mL [7] [%] | IC50 (Ovine COX-1) [µM] | Selectivity index (SI) (human recombinant COX-2) | Edema inhibition % ([8]; 1 h) [%] | Edema thickness (mm) ± SEM ([8]; 1 h) [mm] | Edema inhibition % ([8]; 3 h) [%] | Edema thickness (mm) ± SEM ([8]; 3 h) [mm] | Edema inhibition % ([8]; 6 h) [%] | Edema thickness (mm) ± SEM ([8]; 6 h) [mm] | melting point [°C] | other results
C[C@@H]1[C@H](O)[C@@H](C)/C=C/C=C/C=C/C=C/C=C/C=C/C=C/[C@H](O[C@@H]2O[C@H](C)[C@@H](O)[C@H](N)[C@@H]2O)C[C@@H]2O[C@](O)(C[C@@H](O)C[C@@H](O)[C@H](O)CC[C@@H](O)C[C@@H](O)CC(=O)O[C@H]1C)C[C@H](O)[C@H]2C(=O)O [Amphotericin B, amphotericin B, reference compound] | – | – | – | – | – | – | – | – | – | – | – | – | – | – | MIC (C. albicans): 1.56 µg/mL (≈ 1.69 µM); MIC [1]: 1.56 µg/mL (≈ 1.69 µM)
CO/N=C(\C(=O)N[C@@H]1C(=O)N2C(C(=O)O)=C(CSc3nc(=O)c(=O)[nH]n3C)CS[C@H]12)c1csc(N)n1 [Ceftriaxone, ceftriaxone, reference compound] | – | – | – | – | – | – | – | – | – | – | – | – | – | – | MIC (MRSA): 32 µg/mL (≈ 57.7 µM); MIC (E. coli): 0.125 µg/mL (≈ 0.225 µM); MIC (P. aeruginosa): 32 µg/mL (≈ 57.7 µM); MIC (A. baumannii): 32 µg/mL (≈ 57.7 µM)
CS(=O)(=O)c1ccc(-c2[nH]c3ccccc3c2C=NNc2ccc(S(N)(=O)=O)cc2)cc1 [Compound 7c, 4-(2-((2-(4-(Methylsulfonyl)phenyl)-1H-indol-3-yl)methylene)hydrazinyl)benzene sulfonamide] | 43.3 | 12.8 | 11.3 | 21.9 | 4.13 | 11.4 | 103.7 and 103.72 | 62.7 | 0.978 ± 0.071 | 81.2 | 0.419 ± 0.028 | 82.5 | 0.331 ± 0.011 | 203 to 204 | inhibition at 32 µg/mL [3]: 3.17%
CS(=O)(=O)c1ccc(N/N=C/c2c(-c3ccc(S(C)(=O)=O)cc3)[nH]c3ccc(F)cc23)cc1 [Compound 7h, 5-Fluoro-2-(4-(methylsulfonyl)phenyl)-3-((2-(4-(methylsulfonyl)phenyl) hydraz-ono)methyl)-1H-indole] | 51.8 | 23.6 | 7.97 | 30.3 | 25.3 | 12.4 | 112.7 and 112.72 | 75.4 | 0.645 ± 0.058 | 89.4 | 0.236 ± 0.008 | 92.7 | 0.138 ± 0.006 | 187 to 188 | –
Cc1ccc(NN=Cc2c(-c3ccc(S(C)(=O)=O)cc3)[nH]c3ccc(F)cc23)cc1 [Compound 7k, 5-Fluoro-2-(4-(methylsulfonyl)phenyl)-3-((2-(p-tolyl)hydrazono)methyl)-1H-indole] | 31.4 | 8.77 | 2.23 | 28.2 | 1.79 | 8.24 | 39.20 | 55.7 | 1.162 ± 0.088 | 69.1 | 0.689 ± 0.011 | 66.3 | 0.638 ± 0.051 | 151 to 153 | –
CS(=O)(=O)c1ccc(-c2[nH]c3ccc(F)cc3c2-c2nc3cc(Cl)ccc3[nH]2)cc1 [Compound 8b, 5-Chloro-2-(5-fluoro-2-(4-(methylsulfonyl)phenyl)-1H-indol-3-yl)-1H-benzo[d] imidazole] | 22.4 | 6.56 | 14.5 | 11.3 | 13.2 | 9.41 | 62.73 | 52.1 | 1.256 ± 0.074 | 68.1 | 0.712 ± 0.066 | 76.2 | 0.451 ± 0.013 | 202 to 204 | –
CS(=O)(=O)c1ccc(-c2[nH]c3ccccc3c2C=NO)cc1 [Compound 9a, 2-(4-(Methylsulfonyl)phenyl)-1H-indole-3-carbaldehyde oxime] | 42.1 | 14.8 | 2.49 | – | 9.15 | 10.6 | 81.84 | 77.2 | 0.598 ± 0.050 | 61.8 | 0.852 ± 0.073 | 62.3 | 0.714 ± 0.052 | 199 to 201 | –
CS(=O)(=O)c1ccc(-c2[nH]c3ccc(F)cc3c2C=NO)cc1 [Compound 9b, 5-Fluoro-2-(4-(methylsulfonyl)phenyl)-1H-indole-3-carbaldehyde oxime] | 33.3 | 9.23 | 7.9 | 10.3 | 2.47 | 9.42 | 44.85 | 66.2 | – | 80.5 | 0.700 ± 0.024 | 73.4 | 0.726 ± 0.055 | 226 to 228 | –
